Test results reported in patent US20180368427A1, “Method of Reducing Spoilage in Harvested Produce During Storage and Shipping” (Apeel Technology, Inc., priority 2016, published 2018).

Test system: strawberries
Experiment: Average daily mass loss rate of coated strawberries stored at low relative humidity
Conditions: over 4 days, 10 mg/mL in ethanol, spray coated, 23-27° C., 40-55% humidity (FIG. 7A), listed as pure PA-2G formulation (712)
Protocol: FIG. 7A is a graph showing average daily mass loss rates for coated and uncoated harvested strawberries stored at low relative humidity levels for 4 days. The coating agents included various mixtures of PA-1G and PA-2G, as detailed below. Each bar in the graph represents average daily mass loss rates for a group of 15 strawberries. The strawberries corresponding to bar 702 were untreated (control group). The strawberries corresponding to bar 704 were treated with a solution for which the coating agent was substantially pure PA-1G. The strawberries corresponding to bar 706 were treated with a solution for which the coating agent was 75% PA-1G and 25% PA-2G by mass. The strawberries corresponding to bar 708 were treated with a solution for which the coating agent was 50% PA-1G and 50% PA-2G by mass. The strawberries corresponding to bar 710 were treated with a solution for which the coating agent was 25% PA-1G and 75% PA-2G by mass. The strawberries corresponding to bar 712 were treated with a solution for which the coating agent was substantially pure PA-2G. […] FIG. 7A is a graph showing average daily mass loss rates, measured over the course of 4 days, of the untreated strawberries and of the strawberries coated with one of the five solutions described above. […]

## CCCCCCCCCCCCCCCC(=O)OC(CO)CO [PA-2G, 1,3-dihydroxypropan-2-yl palmitate]
  average daily mass loss rate: 6.1%
